The target in this assay is T1, fibrinogen (Evicel) (Homo sapiens, UniProt P02671+P02675+P02679).
T1 construct: purchased Ethicon (Evicel Biologically Active Component 2)
T1 sequence (P02671 20-629 limits assumed): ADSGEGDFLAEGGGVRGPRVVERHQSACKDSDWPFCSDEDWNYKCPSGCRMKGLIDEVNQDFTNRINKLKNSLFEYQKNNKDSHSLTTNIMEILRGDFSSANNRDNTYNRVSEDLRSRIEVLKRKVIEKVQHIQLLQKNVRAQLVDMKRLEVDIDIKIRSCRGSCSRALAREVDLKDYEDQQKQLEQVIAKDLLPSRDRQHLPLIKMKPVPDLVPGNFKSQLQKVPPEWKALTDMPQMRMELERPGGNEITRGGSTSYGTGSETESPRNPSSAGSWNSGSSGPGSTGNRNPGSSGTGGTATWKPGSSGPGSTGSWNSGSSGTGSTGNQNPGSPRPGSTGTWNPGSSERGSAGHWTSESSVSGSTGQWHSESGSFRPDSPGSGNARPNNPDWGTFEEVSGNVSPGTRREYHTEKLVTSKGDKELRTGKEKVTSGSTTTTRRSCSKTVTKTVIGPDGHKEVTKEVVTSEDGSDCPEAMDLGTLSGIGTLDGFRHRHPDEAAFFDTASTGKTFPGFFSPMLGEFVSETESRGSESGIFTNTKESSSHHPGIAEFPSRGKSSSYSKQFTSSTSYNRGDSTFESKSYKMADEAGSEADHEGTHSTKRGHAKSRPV
T1 sequence (P02675 31-491): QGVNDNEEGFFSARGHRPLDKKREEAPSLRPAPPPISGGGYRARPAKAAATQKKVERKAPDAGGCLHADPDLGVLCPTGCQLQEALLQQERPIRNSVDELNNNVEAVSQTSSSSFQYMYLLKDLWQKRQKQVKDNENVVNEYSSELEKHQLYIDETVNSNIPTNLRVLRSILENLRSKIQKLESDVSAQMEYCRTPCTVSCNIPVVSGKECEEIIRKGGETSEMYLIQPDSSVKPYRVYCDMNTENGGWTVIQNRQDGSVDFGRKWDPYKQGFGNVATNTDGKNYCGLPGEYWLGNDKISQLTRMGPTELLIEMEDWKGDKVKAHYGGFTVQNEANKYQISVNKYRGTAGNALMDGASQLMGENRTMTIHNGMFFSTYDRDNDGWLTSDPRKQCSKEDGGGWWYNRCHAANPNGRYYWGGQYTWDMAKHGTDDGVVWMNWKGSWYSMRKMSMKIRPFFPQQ
T1 sequence (P02679 27-433 limits assumed): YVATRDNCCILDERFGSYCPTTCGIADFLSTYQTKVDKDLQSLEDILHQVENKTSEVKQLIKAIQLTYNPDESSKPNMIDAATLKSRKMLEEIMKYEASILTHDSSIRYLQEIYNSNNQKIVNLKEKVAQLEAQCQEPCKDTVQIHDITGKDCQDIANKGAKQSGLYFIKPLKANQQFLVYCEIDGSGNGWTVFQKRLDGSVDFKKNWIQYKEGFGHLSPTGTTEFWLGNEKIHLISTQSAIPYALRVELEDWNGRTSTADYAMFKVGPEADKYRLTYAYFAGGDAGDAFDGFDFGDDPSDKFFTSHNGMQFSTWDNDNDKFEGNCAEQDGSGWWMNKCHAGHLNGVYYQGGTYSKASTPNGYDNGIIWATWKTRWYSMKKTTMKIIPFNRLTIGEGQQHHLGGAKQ
Put plainly: Fibrinogen clotting assay with coagulation analyzer (Clauss method), tissue glue fibrinogen. It counts as biochemical. Particulars: for gelation time (average clotting time): 4.58 mM additive in PBS, fixed 1:20 dilution of fibrinogen (Evicel); for clot time: dye 0.1% w/v; for Effect on Clotting Time: screen, multiple concentrations up to 4.58 mM.

Where [1] appears, read: 0.01% (w/v) dye, 1:20 dilution of fibrinogen, n=10.
Setting [2] is: 0.05% (w/v) dye, 1:20 dilution of fibrinogen, n=10.
Where [3] appears, read: 0.10% (w/v) dye, 1:20 dilution of fibrinogen, n=10.

Molecules are shown by their SMILES. A value given as a limit tells only on which side of the number the result lay.

`Cc1cc(-c2ccc(/N=N/c3ccc4c(S(=O)(=O)O)cc(S(=O)(=O)O)c(N)c4c3O)c(C)c2)ccc1/N=N/c1ccc2c(S(=O)(=O)O)cc(S(=O)(=O)O)c(N)c2c1O` [EB, Evans Blue]: the “Effect on Clotting Time” value is given as “Increase”. In addition, where the note is “n=10”, the “gelation time (average clotting time)” value is more than 70 s. The compound further gave a clotting time under setting [1] of 19.4 ± 0.7 s. In addition, the clotting time under setting [2] was determined as 34.8 ± 4.7 s. Under setting [3], this compound had a clotting time of 43.6 ± 2.5 s. For the same compound, for the setting “0.2-0.4% dye, out of range of detection of the coagulation analyzer”, the clotting time was more than 70 s. Where the note is “fibrinogen 10.0 mg/mL”, the clot time turned out to be 50.9 ± 4.9 s. Besides, under “fibrinogen 10.9 mg/mL”, the clot time was determined as 39.5 ± 3.3 s. Also, the clot time (fibrinogen 12.0 mg/mL) is 31.7 ± 1.8 s. In addition, for the setting “fibrinogen 13.3 mg/mL”, the clot time amounted to 25.7 ± 1.0 s. For the same compound, the clot time (fibrinogen 17.1 mg/mL) amounted to 14.8 ± 0.4 s. The same compound had a clot time (fibrinogen 24.0 mg/mL) of 8.9 ± 2.3 s.
For `Cc1cc(-c2ccc(/N=N/c3c(S(=O)(=O)O)cc4cc(S(=O)(=O)O)cc(N)c4c3O)c(C)c2)ccc1/N=N/c1c(S(=O)(=O)O)cc2cc(S(=O)(=O)O)cc(N)c2c1O` [TB, Trypan Blue], the “Effect on Clotting Time” value was “Increase”. The “gelation time (average clotting time)” value (n=10) is 46.3 ± 3.2 s. The same compound yielded a clotting time under setting [1] of 17.6 ± 0.3 s. Further, the clotting time under setting [2] was 18.1 ± 1.4 s. The clotting time under setting [3] came to 24.4 ± 2.3 s. For the same compound, the clotting time (0.2% (w/v) dye, 1:20 dilution of fibrinogen, n=10) is 26.2 ± 4.2 s. Also, where the note is “0.3% (w/v) dye, 1:20 dilution of fibrinogen, n=10”, the clotting time is 25.2 ± 2.9 s. The clotting time (0.4% (w/v) dye, 1:20 dilution of fibrinogen, n=10) turned out to be 29.8 ± 1.2 s. For the same compound, the clot time (fibrinogen 10.0 mg/mL) was found to be 15.7 ± 3.1 s. In addition, the clot time (fibrinogen 10.9 mg/mL) came out at 16.3 ± 0.4 s. Also, the clot time (fibrinogen 12.0 mg/mL) is 11.6 ± 3.7 s. Moreover, the clot time (fibrinogen 13.3 mg/mL) stood at 18.1 ± 0.4 s. Also, the clot time (fibrinogen 17.1 mg/mL) turned out to be 7.4 ± 0.1 s. The compound also displayed a clot time (fibrinogen 24.0 mg/mL) of 5.6 ± 0.1 s.

For the origin of these results see patent publication US20230414826A1, “FIBRIN HYDROGELS” (Mayo Foundation for Medical Education and Research, priority 2020, published 2023).
